Activity calls are given as the source filed them.
Assays:
[1] = biological target: T1, High affinity choline transporter 1 (Homo sapiens, UniProt Q9GZV3); assay: CHT inhibitors, dose response, cell-based, 5-point CRC, membrane potential dye (AID 504840); assay type: functional
T1 sequence (Q9GZV3 whole entry): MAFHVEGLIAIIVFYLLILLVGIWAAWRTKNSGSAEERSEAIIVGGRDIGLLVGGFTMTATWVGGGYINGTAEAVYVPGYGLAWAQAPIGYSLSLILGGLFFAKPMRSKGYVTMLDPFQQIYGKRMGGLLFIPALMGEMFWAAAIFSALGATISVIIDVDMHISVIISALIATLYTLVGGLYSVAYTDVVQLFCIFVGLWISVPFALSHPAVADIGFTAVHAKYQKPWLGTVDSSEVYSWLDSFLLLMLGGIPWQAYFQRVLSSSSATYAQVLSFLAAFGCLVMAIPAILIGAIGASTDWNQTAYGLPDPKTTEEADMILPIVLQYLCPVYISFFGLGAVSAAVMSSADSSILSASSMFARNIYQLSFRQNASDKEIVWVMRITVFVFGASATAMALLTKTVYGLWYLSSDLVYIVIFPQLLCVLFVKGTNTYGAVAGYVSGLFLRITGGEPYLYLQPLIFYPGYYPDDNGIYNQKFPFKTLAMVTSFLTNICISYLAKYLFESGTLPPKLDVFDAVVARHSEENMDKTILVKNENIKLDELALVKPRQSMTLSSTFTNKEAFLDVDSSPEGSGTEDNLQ

[2] = biological target: T2, Polyadenylate-binding protein 1 (Homo sapiens, UniProt P11940); assay: PABP1 MLLE–PAM2 binding inhibitor potency, dose response, biochemical, fluorescence polarization, FITC-PAM2 peptide (AID 602259); assay type: functional; settings: read-out: IC50_Mean
T2 sequence (P11940 whole entry): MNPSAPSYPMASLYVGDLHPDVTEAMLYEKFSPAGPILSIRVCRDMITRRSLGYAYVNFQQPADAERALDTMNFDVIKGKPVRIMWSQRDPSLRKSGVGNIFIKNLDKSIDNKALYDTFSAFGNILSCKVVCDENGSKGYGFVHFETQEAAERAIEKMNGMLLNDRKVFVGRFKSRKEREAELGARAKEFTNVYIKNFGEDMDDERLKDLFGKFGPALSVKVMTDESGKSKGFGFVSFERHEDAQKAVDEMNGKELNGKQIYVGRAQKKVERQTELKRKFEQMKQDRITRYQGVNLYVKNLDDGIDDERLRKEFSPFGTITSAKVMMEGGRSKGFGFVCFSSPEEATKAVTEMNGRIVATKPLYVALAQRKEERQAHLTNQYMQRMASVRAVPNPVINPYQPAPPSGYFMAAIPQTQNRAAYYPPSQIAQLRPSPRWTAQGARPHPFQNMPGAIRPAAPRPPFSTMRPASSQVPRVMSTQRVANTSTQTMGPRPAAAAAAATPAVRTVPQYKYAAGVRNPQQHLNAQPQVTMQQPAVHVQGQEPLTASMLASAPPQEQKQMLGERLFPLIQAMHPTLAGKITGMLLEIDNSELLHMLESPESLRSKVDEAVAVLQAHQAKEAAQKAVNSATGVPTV

[3] = biological target: T2, Polyadenylate-binding protein 1; assay: PABP1 MLLE–PAM2 interaction inhibitors, dose response, miRNA deadenylation inhibitor project, biochemical, fluorescence polarization, Cy5-PAM2 peptide, secondary (AID 602260); assay type: functional; settings: read-out: IC50_Mean
[4] = HEp-2 cell cytotoxicity, dose response, cytotoxicity control for RSV inhibitor project, HTS (AID 2410); assay type: functional; settings: human respiratory syncytial virus
[5] = microbe, parasite or virus in culture; assay type: functional; settings: Mycobacterium tuberculosis
H9c2 = assay: cells; assay type: functional, cell-based; settings: Rattus norvegicus, H9c2, Myocardium;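 also: confirmatory concentration-response retest of ultra-high-throughput screening hits for modulation of myocardial damage; cell death induced by hydrogen peroxide oxidative stress; compound pretreatment for 60 min then peroxide exposure for 2 h; potency is for protecting the cells against peroxide damage rather than for killing them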
Streptococcus = assay: Group A Streptococcus viability loss, dose response, counter-screen for streptokinase expression inhibitor project, luminescence, BacTiterGlo (AID 1915); assay type: functional, organism-based;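 also: potency for reduction of bacterial viability or growth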
[6] = test system: Streptococcus sp. 'group A'; assay: growth inhibition of control SK(-) GAS strain, dose response, counter-screen for streptokinase expression inhibitor project, luminescence, kanamycin, BacTiterGlo, confirmation (AID 1900); assay type: functional, organism-based
[7] = MC4R antagonists, dose response, counter-screen for LGR2 antagonist project, cell-based, plate reader, cherry pick (AID 743444); assay type: functional;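 also: transfected HEK 293 cells stimulated with alpha-MSH peptide; potency of inhibitors of the alpha-MSH evoked signal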
[8] = LGR2 antagonists, dose response, cell-based, HEK293, CRE-luciferase reporter, cherry pick, set 2 (AID 743343); assay type: functional;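 also: transfected cells were stimulated with diluted bursicon conditioned medium after compound addition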
[9] = biological target: FAD-linked sulfhydryl oxidase ALR (Homo sapiens, UniProt P55789); assay: inhibitors of human ALR sulfhydryl oxidase, dose response, biochemical, H2O2 detection, luminescence, cherry-pick (AID 493248)
Chain of FAD-linked sulfhydryl oxidase ALR (P55789 whole entry): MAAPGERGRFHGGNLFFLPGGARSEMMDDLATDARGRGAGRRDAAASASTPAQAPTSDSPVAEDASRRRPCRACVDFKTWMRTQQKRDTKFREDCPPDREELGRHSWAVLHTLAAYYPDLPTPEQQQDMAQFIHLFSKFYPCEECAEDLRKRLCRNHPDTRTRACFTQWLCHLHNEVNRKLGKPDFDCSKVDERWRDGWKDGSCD

Genome polyprotein = Genome polyprotein (dengue virus type 2, UniProt P29990); assay: Dengue-2 NS5 methyltransferase inhibitors, primary screen, biochemical, confirmation dose response (AID 588689); assay type: functional
Chain of Genome polyprotein (P29990 2492-3391 limits assumed): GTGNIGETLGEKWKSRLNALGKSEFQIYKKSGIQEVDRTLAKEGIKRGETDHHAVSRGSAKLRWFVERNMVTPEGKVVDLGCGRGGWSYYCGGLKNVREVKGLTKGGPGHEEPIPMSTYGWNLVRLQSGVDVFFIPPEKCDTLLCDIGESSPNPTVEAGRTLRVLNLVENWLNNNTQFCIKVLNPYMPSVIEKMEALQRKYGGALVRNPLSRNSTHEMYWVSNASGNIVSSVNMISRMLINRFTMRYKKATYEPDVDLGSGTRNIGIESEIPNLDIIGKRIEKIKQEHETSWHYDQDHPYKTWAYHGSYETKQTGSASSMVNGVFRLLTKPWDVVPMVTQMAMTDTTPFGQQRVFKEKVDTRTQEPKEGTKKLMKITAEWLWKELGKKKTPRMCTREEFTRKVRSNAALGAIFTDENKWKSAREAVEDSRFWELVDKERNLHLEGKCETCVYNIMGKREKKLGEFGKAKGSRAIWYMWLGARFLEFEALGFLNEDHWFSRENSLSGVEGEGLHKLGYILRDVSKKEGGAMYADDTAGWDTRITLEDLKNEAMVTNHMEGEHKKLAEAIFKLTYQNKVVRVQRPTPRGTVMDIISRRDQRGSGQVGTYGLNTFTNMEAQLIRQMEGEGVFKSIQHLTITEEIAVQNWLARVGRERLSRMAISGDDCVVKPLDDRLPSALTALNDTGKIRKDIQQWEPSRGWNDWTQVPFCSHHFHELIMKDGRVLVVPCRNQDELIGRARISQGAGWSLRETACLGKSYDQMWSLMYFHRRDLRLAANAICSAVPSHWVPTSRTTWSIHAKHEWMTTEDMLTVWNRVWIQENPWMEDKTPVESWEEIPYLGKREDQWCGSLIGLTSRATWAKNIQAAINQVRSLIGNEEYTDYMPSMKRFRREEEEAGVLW

[10] = growth suppression of beta-catenin-knockout colon cells, dose response, cell-based, HCT116, human colon tumor (AID 1045); assay type: functional;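 also: HCT116 colon tumor cells with beta catenin knocked out; cells exposed to compound for 60 hours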
[11] = growth suppression of PTEN-null colon cells, dose response, cell-based, HCT116 PTEN knockout (AID 1047); assay type: functional;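 also: HCT116 colon tumor cells with PTEN knocked out; cells exposed to compound for 60 hours before readout; potency for loss of cell viability measured by luminescence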
[12] = biological target: Glucose-6-phosphate 1-dehydrogenase (Homo sapiens, UniProt P11413); assay: human G6PD enzyme inhibitors, dose response, selectivity assay for P. falciparum G6PD inhibitor project, biochemical, fluorescence (AID 504792); assay type: functional
Chain of Glucose-6-phosphate 1-dehydrogenase (P11413 whole entry): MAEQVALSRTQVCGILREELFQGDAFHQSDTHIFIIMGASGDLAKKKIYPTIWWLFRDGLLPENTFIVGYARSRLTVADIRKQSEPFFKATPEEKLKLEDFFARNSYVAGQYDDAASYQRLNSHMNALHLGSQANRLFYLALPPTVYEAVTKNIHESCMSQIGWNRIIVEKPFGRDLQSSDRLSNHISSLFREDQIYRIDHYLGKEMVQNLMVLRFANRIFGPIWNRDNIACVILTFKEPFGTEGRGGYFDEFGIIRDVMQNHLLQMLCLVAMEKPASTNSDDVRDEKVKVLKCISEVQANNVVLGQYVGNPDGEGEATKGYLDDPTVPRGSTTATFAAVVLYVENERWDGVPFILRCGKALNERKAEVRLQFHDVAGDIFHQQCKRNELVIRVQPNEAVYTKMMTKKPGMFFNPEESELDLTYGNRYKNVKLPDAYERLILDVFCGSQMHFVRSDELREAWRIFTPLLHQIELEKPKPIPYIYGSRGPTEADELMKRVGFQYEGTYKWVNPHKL

Vero = assay: cells; assay type: functional; settings: Chlorocebus sabaeus
[13] = biological target: T3, Rac GTPase-activating protein 1 (Homo sapiens, UniProt Q9H0H5); assay: MgcRacGAP GTPase-activating activity inhibitors, confirmation, biochemical, ADP Hunter fluorescence, primary and confirmatory (AID 624330); assay type: functional
T3 sequence (Q9H0H5 whole entry): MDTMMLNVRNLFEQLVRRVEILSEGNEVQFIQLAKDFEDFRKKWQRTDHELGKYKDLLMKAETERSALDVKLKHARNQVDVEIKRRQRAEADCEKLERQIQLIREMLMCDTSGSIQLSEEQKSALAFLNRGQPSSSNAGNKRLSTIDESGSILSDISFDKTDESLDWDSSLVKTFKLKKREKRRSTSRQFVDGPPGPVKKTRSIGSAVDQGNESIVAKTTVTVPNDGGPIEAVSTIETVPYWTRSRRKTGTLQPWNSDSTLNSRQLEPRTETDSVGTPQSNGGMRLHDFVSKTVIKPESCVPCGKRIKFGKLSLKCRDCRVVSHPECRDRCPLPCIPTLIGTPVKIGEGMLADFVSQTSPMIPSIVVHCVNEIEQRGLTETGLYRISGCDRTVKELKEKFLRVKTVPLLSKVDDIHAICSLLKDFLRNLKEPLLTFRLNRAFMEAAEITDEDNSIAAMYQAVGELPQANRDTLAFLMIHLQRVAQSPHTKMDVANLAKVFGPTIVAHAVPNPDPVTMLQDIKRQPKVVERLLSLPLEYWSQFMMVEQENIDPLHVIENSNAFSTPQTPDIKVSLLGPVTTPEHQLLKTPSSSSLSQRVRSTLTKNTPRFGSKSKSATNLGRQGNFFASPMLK

Caspase-6 = biological target: T4, Caspase-6 (Homo sapiens, UniProt P55212); assay: human caspase-6 inhibitors, dose response, biochemical, VEID-R110 fluorescence, cherry-pick (AID 720632)
T4 sequence (P55212 whole entry): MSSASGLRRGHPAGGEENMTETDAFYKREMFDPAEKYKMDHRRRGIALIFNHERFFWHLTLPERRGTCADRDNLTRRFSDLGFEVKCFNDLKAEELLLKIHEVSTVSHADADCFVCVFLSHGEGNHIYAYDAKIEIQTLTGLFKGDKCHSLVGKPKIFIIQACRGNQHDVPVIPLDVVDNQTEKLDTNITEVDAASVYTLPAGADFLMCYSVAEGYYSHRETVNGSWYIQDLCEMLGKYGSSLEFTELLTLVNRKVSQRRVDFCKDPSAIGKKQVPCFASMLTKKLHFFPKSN

SMILES: Cc1ccccc1/C=C/C(=O)NCC(=O)N1CCC(N(C)C2CCCCC2C)CC1 (centres undefined)
- IC50 [1]: 14.5 µM (active)

SMILES: O=C(O)c1cccc(S(=O)(=O)Nc2ccc3c(c2)OCO3)c1
- IC50 [2]: > 66 µM (inactive)
- IC50 [3]: > 66 µM (inactive)

SMILES: Cc1cc(C)c2ccc(NN)nc2c1O
- CC50 [4]: 36 µM (active)
- CC50 [5]: > 40 µM (active)
- IC50 (H9c2): 5.06 µM (active)
- EC50 (Streptococcus): 6.5 µM (active)
- EC50 [6]: 3.27 µM (active)

SMILES: CNC(=O)Oc1cccc(-c2cn3cc(Cl)ccc3n2)c1
- AC50 [7]: 18.6 µM (active)
- AC50 [8]: 15.8 µM (active)

SMILES: Cc1cc(Nc2[nH]nc(N)c2C#N)ccc1F
- AC50 [9]: 2.22 µM (active)

SMILES: CC1CCCCC1NC(=O)c1ccc(S(=O)(=O)NCC2CCCO2)cc1 (centres undefined)
- IC50 [1]: 12.3 µM (active)

SMILES: COC(=O)c1c(C)c2c(C)cc3ccccn3c-2c1C(=O)OC
- IC50 (Genome polyprotein): > 100 µM (active)

SMILES: CSc1ccc(C2C(C#N)=C(N)Oc3cc4c(cc32)OCO4)cc1 (centres undefined)
- EC50 [10]: 6.05 µM (active)
- EC50 [11]: 6.59 µM (active)

SMILES: [O-]/[N+](=C/c1cccnc1)c1ccc(Br)cc1
- IC50 [12]: 28.2 µM (inactive)

SMILES: Fc1cc(F)c(F)c(SCCc2ccncc2)c1F
- EC50 [10]: 30.7 µM (active)
- EC50 [11]: 29.7 µM (active)

SMILES: Nc1ccc(-c2ccc(N)c(C(=O)O)c2)cc1C(=O)O
- AC50 [9]: 2.38 µM (active)

SMILES: CC(=O)Nc1ccc(C(=O)CSc2ncn(-c3ccccc3)n2)cc1
- IC50 [2]: > 66 µM (inactive)
- IC50 [3]: > 66 µM (inactive)

SMILES: Cc1ccc(S(=O)(=O)SC/C=C/CSS(=O)(=O)c2ccc(C)cc2)cc1
- IC50 [12]: 59.5 µM (inactive)

SMILES: CN(C)CCCN(C(=O)C1=COCCO1)c1nc2ccc(Br)cc2s1
- CC50 (Vero): > 25 µM (active)

SMILES: Sc1ncc2cnccn12
- IC50 [2]: > 66 µM (inactive)
- IC50 [13]: 52.3 µM (active)
- IC50 [3]: > 66 µM (inactive)

SMILES: COc1cc(/C=N/Nc2ccc(Cl)nn2)cc(OC)c1O
- AC50 [9]: 0.005 µM (active)

SMILES: CCCCNc1nc(NCc2ccccc2)nc2ccccc12
- AC50 (Caspase-6): 15.6 µM (active)

SMILES: COc1c(OC(C)=O)ccc(/C=N\NC(=O)c2ccc(Br)cc2)c1[N+](=O)[O-]
- IC50 (Genome polyprotein): 96.5 µM (active)

Source: ChEMBL document CHEMBL1201862, “PubChem BioAssay data set” (2004)
